Results published in US12503444B2, “Compound containing benzene ring and application thereof” (WUHAN LL SCIENCE AND TECHNOLOGY DEVELOPMENT CO., LTD., priority 2019, dated 2025).

Each molecule was assayed against T1, hP2X4 (human purinergic P2X receptor subtype 4) (Homo sapiens, UniProt Q99571) (assay: FLIPR assay of intracellular calcium increase induced by activation of hP2X4 expressed in HEK293 cells (agonist BZ-ATP 2.5 μM)). Details: HEK293 cells stably expressing hP2X4, FLIPR, class symbols, read-out: P2X4 IC50.
T1 sequence (Q99571 1-404 isoform Q99571-2): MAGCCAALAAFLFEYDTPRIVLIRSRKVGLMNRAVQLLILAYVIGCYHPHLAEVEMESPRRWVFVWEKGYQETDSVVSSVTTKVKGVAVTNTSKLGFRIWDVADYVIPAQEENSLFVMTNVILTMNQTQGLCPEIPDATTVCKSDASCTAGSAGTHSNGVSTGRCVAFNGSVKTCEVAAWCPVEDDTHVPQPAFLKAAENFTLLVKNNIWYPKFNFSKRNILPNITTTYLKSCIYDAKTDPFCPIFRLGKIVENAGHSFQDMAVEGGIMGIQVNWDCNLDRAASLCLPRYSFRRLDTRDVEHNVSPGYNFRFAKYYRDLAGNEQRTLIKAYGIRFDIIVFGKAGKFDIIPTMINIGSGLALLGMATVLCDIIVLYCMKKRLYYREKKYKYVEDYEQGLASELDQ
Assay type: cell-based
Method: The antagonist property of the compounds disclosed herein was determined using the FLIPR (fluorescence imaging plate reader) method, wherein the compounds are inhibitors for the intracellular calcium increase induced by activation of hP2X4 (human purinergic P2X receptor subtype 4, accession No. NM_001256796.2) expressed in HEK293 cells (human renal epithelial cell line, ATCC).
HEK293 cells stably expressing hP2X4 were cultured in DMEM high glucose medium containing 10% FBS (fetal bovine serum, Biosera, FB-1058/500), 1% penicillin-streptomycin (Gibco, 15140-122) and 1 mg/mL G418 (CABIOCHE, 345810) in a cell incubator (37° C., […]). Cells at 400,000 cells/mL were seeded into a 384-well plate (10,000 cells/well) 18-24 h prior to the FLIPR experiment and then incubated overnight in a cell incubator. On the day of the experiment, the medium was discarded and the cells were washed in an FLIPR buffer (0.3 mL of probenecid (Thermo, P36400), 0.6 mL of 1 M HEPES (Invitrogen, 15630080) and 29.1 mL of HBSS (Invitrogen, 14065056) per 30 mL of the buffer). Each well was added with 20 μL of 0.5× Calcium 6 fluorescent dye (Molecular Devices, R8190) and then the cells were subjected to dye-loading incubation at 37° C. for 1.5 h. Each well was added with 10 μL of respective test compound (dissolved in DMSO at a concentration of 10 mM and serially diluted with buffer) or vehicle and the mixture was equilibrated for 30 min at room temperature. The cell plate was then placed in the FLIPR for baseline fluorescence measurements (excitation at 485 nm and emission at 525-535 nm). An agonist (BZ-ATP (Sigma, B6396) at a final concentration of 2.5 μM) or a vehicle (ultrapure water) was then added at 10 μL/well, fluorescence values were measured for 2 min at 1-second intervals, and finally the output fluorescence counts were analyzed.

**Q.** For “2-(2-chlorophenyl)-N-(1-(2-hydroxyethyl)-4-sulfamoyl-2H-indazol-6-yl)acetamide [Compound 27-B]”, which IC50 is on record?
**A.** 50 to 200 nM

**Q.** For `CCn1cc2c(S(N)(=O)=O)cc(NC(=O)Cc3ccccc3Cl)cc2n1` [Compound 4-A, (4-sulfonamide-6-N-(2-chlorophenylacetyl)-2-ethyl)-indazole], which IC50 is on record?
**A.** ≤ 10 nM

**Q.** `CC(C)n1ncc2c(S(N)(=O)=O)cc(NC(=O)Cc3ccccc3Cl)cc21` [Compound 6-B, 2-(2-chlorophenyl)-N-(1-isopropyl-4-sulfamoyl-1H-indazol-6-yl)acetamide] was tested. Which IC50 did it give?
**A.** 10 to 50 nM

**Q.** With `CC(C)(C)n1cc2c(S(N)(=O)=O)cc(NC(=O)Cc3ccccc3Cl)cc2n1` [Compound 9, 2-(2-chlorophenyl)-N-(2-(tert-butyl)-4-sulfamoyl-2H-indazol-6-yl)acetamide] as the molecule, how does the IC50 read?
**A.** ≤ 10 nM

**Q.** With `NS(=O)(=O)c1cc(NC(=O)Cc2ccccc2Cl)cc2nn(CCF)cc12` [Compound 11, 2-(2-chlorophenyl)-N-(2-(2-fluoroethyl)-4-sulfamoyl-2H-indazol-6-yl)acetamide] as the molecule, how does the IC50 read?
**A.** ≤ 10 nM

**Q.** Which IC50 does the source give for `CC(C)(F)n1cc2c(S(N)(=O)=O)cc(NC(=O)Cc3ccccc3Cl)cc2n1` [Compound 13, 2-(2-chlorophenyl)-N-(2-(2-fluoropropan-2-yl)-4-sulfamoyl-2H-indazol-6-yl)acetamide] here?
**A.** 10 to 50 nM

**Q.** Which IC50 does the source give for `C=CCn1cc2c(S(N)(=O)=O)cc(NC(=O)Cc3ccccc3Cl)cc2n1` [Compound 14-A] here?
**A.** ≤ 10 nM

**Q.** With `NS(=O)(=O)c1cc(NC(=O)Cc2ccccc2Cl)cc2c1cnn2CC1CC1` [Compound 15-B, 2-(2-chlorophenyl)-N-(1-(cyclopropylmethyl)-4-sulfamoyl-1H-indazol-6-yl)acetamide] as the molecule, how does the IC50 read?
**A.** 10 to 50 nM

**Q.** For `NS(=O)(=O)c1cc(NC(=O)Cc2ccccc2Cl)cc2c1cnn2C(=O)C1CC1` [Compound 16-A, 2-(2-chlorophenyl)-N-(1-(cyclopropylcarbonyl)-4-sulfamoyl-1H-indazol-6-yl)acetamide], which IC50 is on record?
**A.** 10 to 50 nM

**Q.** For `NS(=O)(=O)c1cc(NC(=O)Cc2ccccc2Cl)cc2nn(C(=O)C3CC3)cc12` [Compound 16-B, 2-(2-chlorophenyl)-N-(2-(cyclopropylcarbonyl)-4-sulfamoyl-2H-indazol-6-yl)acetamide], which IC50 is on record?
**A.** ≤ 10 nM

**Q.** With `CC(C)C1(n2cc3c(S(N)(=O)=O)cc(NC(=O)Cc4ccccc4Cl)cc3n2)CC1` [Compound 17, 2-(2-chlorophenyl)-N-(2-(1-isopropylcyclopropyl)-4-sulfamoyl-2H-indazol-6-yl)acetamide] as the molecule, how does the IC50 read?
**A.** 10 to 50 nM

**Q.** With `CCC1(n2cc3c(S(N)(=O)=O)cc(NC(=O)Cc4ccccc4Cl)cc3n2)CC1` [Compound 18, 2-(2-chlorophenyl)-N-(2-(1-ethylcyclopropyl)-4-sulfamoyl-2H-indazol-6-yl)acetamide] as the molecule, how does the IC50 read?
**A.** 10 to 50 nM

**Q.** `NS(=O)(=O)c1cc(NC(=O)Cc2ccccc2Cl)cc2nn(C(F)C3CC3)cc12` (stereo not shown) [Compound 19, 2-(2-chlorophenyl)-N-(2-(cyclopropylfluoromethyl)-4-sulfamoyl-2H-indazol-6-yl)acetamide] was tested. Which IC50 did it give?
**A.** 10 to 50 nM

**Q.** With `NS(=O)(=O)c1cc(NC(=O)Cc2ccccc2Cl)cc2nn(C(F)(F)C3CC3)cc12` [Compound 20, 2-(2-chlorophenyl)-N-(2-(cyclopropyldifluoromethyl)-4-sulfamoyl-2H-indazol-6-yl)acetamide] as the molecule, how does the IC50 read?
**A.** 10 to 50 nM

**Q.** How did the IC50 turn out when `CC(C)(C1CC1)n1cc2c(S(N)(=O)=O)cc(NC(=O)Cc3ccccc3Cl)cc2n1` [Compound 21, 2-(2-chlorophenyl)-N-(2-(2-cyclopropylpropan-2-yl)-4-sulfamoyl-2H-indazol-6-yl)acetamide] was run?
**A.** 10 to 50 nM

**Q.** How did the IC50 turn out when `CC1(n2cc3c(S(N)(=O)=O)cc(NC(=O)Cc4ccccc4Cl)cc3n2)CC1` [Compound 22, 2-(2-chlorophenyl)-N-(2-(1-methylcyclopropyl)-4-sulfamoyl-2H-indazol-6-yl)acetamide] was run?
**A.** 10 to 50 nM

**Q.** `CC(C)C(F)(F)n1cc2c(S(N)(=O)=O)cc(NC(=O)Cc3ccccc3Cl)cc2n1` [Compound 23, 2-(2-chlorophenyl)-N-(2-(1,1-difluoro-2-methylpropyl)-4-sulfamoyl-2H-indazol-6-yl)acetamide] was tested. Which IC50 did it give?
**A.** 10 to 50 nM

**Q.** How did the IC50 turn out when `COCCn1cc2c(S(N)(=O)=O)cc(NC(=O)Cc3ccccc3Cl)cc2n1` [Compound 25, 2-(2-chlorophenyl)-N-(2-(2-methoxyethyl)-4-sulfamoyl-2H-indazol-6-yl)acetamide] was run?
**A.** 10 to 50 nM

**Q.** Which IC50 does the source give for `COCCn1ncc2c(S(N)(=O)=O)cc(NC(=O)Cc3ccccc3Cl)cc21` [Compound 25A] here?
**A.** 10 to 50 nM

**Q.** How did the IC50 turn out when `CC(C)OCCn1ncc2c(S(N)(=O)=O)cc(NC(=O)Cc3ccccc3Cl)cc21` [Compound 26-B, 2-(2-chlorophenyl)-N-(1-(2-isopropoxyethyl)-4-sulfamoyl-1H-indazol-6-yl)acetamide] was run?
**A.** 200 to 5000 nM

**Q.** `NS(=O)(=O)c1cc(NC(=O)Cc2ccccc2Cl)cc2nn(CCO)cc12` [Compound 27-A, 2-(2-chlorophenyl)-N-(2-(2-hydroxyethyl)-4-sulfamoyl-2H-indazol-6-yl)acetamide] was tested. Which IC50 did it give?
**A.** 200 to 5000 nM

**Q.** With `NS(=O)(=O)c1cc(NC(=O)Cc2ccccc2Cl)cc2nn(CCOC3CC3)cc12` [Compound 28, 2-(2-chlorophenyl)-N-(2-(2-cyclopropyloxyethyl)-4-sulfamoyl-2H-indazol-6-yl)acetamide] as the molecule, how does the IC50 read?
**A.** 10 to 50 nM

**Q.** For `CC(C)NCCn1cc2c(S(N)(=O)=O)cc(NC(=O)Cc3ccccc3Cl)cc2n1` [Compound 29, 2-(2-chlorophenyl)-N-(2-(2-(isopropylamino)ethyl)-4-sulfamoyl-2H-indazol-6-yl)acetamide], which IC50 is on record?
**A.** 10 to 50 nM

**Q.** Which IC50 does the source give for `CS(=O)(=O)CCn1cc2c(S(N)(=O)=O)cc(NC(=O)Cc3ccccc3Cl)cc2n1` [Compound 30, 2-(2-chlorophenyl)-N-(2-(2-(methylsulfonyl)ethyl)-4-sulfamoyl-2H-indazol-6-yl)acetamide] here?
**A.** 10 to 50 nM

**Q.** `NS(=O)(=O)c1cc(NC(=O)Cc2ccccc2Cl)cc2c1cnn2CC1CCCC1` [Compound 31-B, 2-(2-chlorophenyl)-N-(1-(cyclopentylmethyl)-4-sulfamoyl-1H-indazol-6-yl)acetamide] was tested. Which IC50 did it give?
**A.** ≤ 10 nM

**Q.** Which IC50 does the source give for `NS(=O)(=O)c1cc(NC(=O)Cc2ccccc2Cl)cc2nn(CC3CCCCC3)cc12` [Compound 32-A, 2-(2-chlorophenyl)-N-(2-(cyclohexylmethyl)-4-sulfamoyl-2H-indazol-6-yl)acetamide] here?
**A.** ≤ 10 nM

**Q.** For `NS(=O)(=O)c1cc(NC(=O)Cc2ccccc2Cl)cc2c1cnn2CC1CCCCC1` [Compound 32-B, 2-(2-chlorophenyl)-N-(1-(cyclohexylmethyl)-4-sulfamoyl-1H-indazol-6-yl)acetamide], which IC50 is on record?
**A.** 10 to 50 nM

**Q.** For `NS(=O)(=O)c1cc(NC(=O)Cc2ccccc2Cl)cc2nn(CCC3CC3)cc12` [Compound 33, 2-(2-chlorophenyl)-N-(2-(2-cyclopropylethyl)-4-sulfamoyl-2H-indazol-6-yl)acetamide], which IC50 is on record?
**A.** ≤ 10 nM

**Q.** For `NS(=O)(=O)c1cc(NC(=O)Cc2ccccc2Cl)cc2nn(Cc3ccc(O)cc3)cc12` [Compound 34, 2-(2-chlorophenyl)-N-(2-(4-hydroxybenzyl)-4-sulfamoyl-2H-indazol-6-yl)acetamide], which IC50 is on record?
**A.** 10 to 50 nM

**Q.** For `COc1ccccc1Cn1ncc2c(S(N)(=O)=O)cc(NC(=O)Cc3ccccc3Cl)cc21` [Compound 37-B, 2-(2-chlorophenyl)-N-(1-(2-methoxybenzyl)-4-sulfamoyl-1H-indazol-6-yl)acetamide], which IC50 is on record?
**A.** 10 to 50 nM

**Q.** With `CN(C)c1cccc(Cn2cc3c(S(N)(=O)=O)cc(NC(=O)Cc4ccccc4Cl)cc3n2)c1` [Compound 38, 2-(2-chlorophenyl)-N-(2-(3-(dimethylamino)benzyl)-4-sulfamoyl-2H-indazol-6-yl)acetamide] as the molecule, how does the IC50 read?
**A.** 10 to 50 nM

**Q.** `COc1cnccc1Cn1cc2c(S(N)(=O)=O)cc(NC(=O)Cc3ccccc3Cl)cc2n1` [Compound 39, 2-(2-chlorophenyl)-N-(2-((3-methoxypyridin-4-yl)methyl)-4-sulfamoyl-2H-indazol-6-yl)acetamide] was tested. Which IC50 did it give?
**A.** 10 to 50 nM

Same assay, conditions: HEK293 cells stably expressing hP2X4, FLIPR, numeric values, read-out: P2X4 IC50

**Q.** How did the IC50 turn out when `CC(C)n1cc2c(S(N)(=O)=O)cc(NC(=O)Cc3ccccc3Cl)cc2n1` [Compound 6-A, 2-(2-chlorophenyl)-N-(2-isopropyl-4-sulfamoyl-2H-indazol-6-yl)acetamide] was run?
**A.** 1.16 nM

**Q.** Which IC50 does the source give for `NS(=O)(=O)c1cc(NC(=O)Cc2ccccc2Cl)cc2nn(CC3CC3)cc12` [Compound 15-A, 2-(2-chlorophenyl)-N-(2-(cyclopropylmethyl)-4-sulfonamido-2H-indazol-6-yl)acetamide] here?
**A.** 119 nM
